# Measured values reported in paper PMC4725968 (Scientific Reports, 2016).
# Where a chain is given by its changes, count along the chain named. In names and notes the source's numbering stands.
# T1: DERAPA (Pyrobaculum aerophilum, UniProt Q8ZXK7)
# T1 construct: gene deoC; synthetic deoC gene in pET21a, C-terminal 6xHis tag; E. coli BL21(DE3); NiNTA; dimer
# T1 sequence (Q8ZXK7 1-226): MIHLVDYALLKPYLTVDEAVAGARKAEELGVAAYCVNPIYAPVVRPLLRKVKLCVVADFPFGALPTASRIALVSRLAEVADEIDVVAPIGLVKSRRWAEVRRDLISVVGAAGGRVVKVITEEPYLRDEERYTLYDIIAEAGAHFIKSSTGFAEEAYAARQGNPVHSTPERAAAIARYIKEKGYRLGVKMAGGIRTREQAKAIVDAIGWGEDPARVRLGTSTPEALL
# T2: DERATM (Thermotoga maritima, UniProt Q9X1P5)
# T2 construct: gene deoC; synthetic deoC gene in pET21a, C-terminal 6xHis tag; E. coli BL21(DE3); NiNTA; dimer
# T2 sequence (Q9X1P5 1-248): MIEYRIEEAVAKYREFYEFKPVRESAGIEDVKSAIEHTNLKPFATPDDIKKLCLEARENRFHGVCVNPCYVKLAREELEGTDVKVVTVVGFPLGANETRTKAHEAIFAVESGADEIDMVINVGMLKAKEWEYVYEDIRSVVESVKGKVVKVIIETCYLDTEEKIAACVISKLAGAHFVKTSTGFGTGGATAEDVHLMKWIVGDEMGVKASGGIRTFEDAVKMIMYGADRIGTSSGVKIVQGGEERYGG
# T3: DERAEC (Escherichia coli, UniProt P0A6L0)
# T3 construct: gene deoC; deoC isolated previously; E. coli BL21(DE3); NiNTA purification; dimer
# T3 sequence (P0A6L0 1-259): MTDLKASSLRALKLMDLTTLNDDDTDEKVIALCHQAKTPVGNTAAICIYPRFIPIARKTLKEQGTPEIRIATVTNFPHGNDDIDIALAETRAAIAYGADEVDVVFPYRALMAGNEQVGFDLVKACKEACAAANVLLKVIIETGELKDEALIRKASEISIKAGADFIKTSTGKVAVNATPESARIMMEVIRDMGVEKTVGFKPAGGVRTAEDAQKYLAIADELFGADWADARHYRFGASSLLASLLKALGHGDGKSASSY
# T4: DERACP (Colwellia psychrerythraea, UniProt Q483R4)
# T4 construct: gene deoC; synthetic deoC gene in pET21a, C-terminal 6xHis tag; E. coli BL21(DE3); NiNTA; dimer
# T4 sequence (Q483R4 1-257): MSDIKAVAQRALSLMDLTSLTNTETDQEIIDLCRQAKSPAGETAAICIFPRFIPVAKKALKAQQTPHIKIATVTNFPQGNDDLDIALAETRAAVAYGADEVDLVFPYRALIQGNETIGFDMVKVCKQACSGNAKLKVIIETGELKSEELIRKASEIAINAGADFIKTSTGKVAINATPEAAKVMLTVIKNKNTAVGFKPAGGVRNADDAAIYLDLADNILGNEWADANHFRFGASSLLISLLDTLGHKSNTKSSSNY
# B1: 2-deoxy-D-ribose-5-phosphate aldolase (DERA) from Colwellia psychrerythraea, wild type (enzyme, UniProt Q483R4 1-257, looked up)
# chain: T4 sequence (Q483R4 1-257)
# notes: 2-deoxy-D-ribose-5-phosphate aldolase (DERA, deoC gene) of Colwellia psychrerythraea; gene synthesised by GenScript, in pET21a; also called DERACP; psychrophilic DERA; source: E. coli BL21(DE3), purified (Ni-NTA, SEC)
# B2: 2-deoxy-D-ribose-5-phosphate aldolase (DERA) from Thermotoga maritima, wild type (enzyme)
# chain: T2 sequence (Q9X1P5 1-248)
# notes: 2-deoxy-D-ribose-5-phosphate aldolase (DERA, deoC gene) of Thermotoga maritima; gene synthesised by GenScript, in pET21a; also called DERATM; hyperthermophilic DERA; source: E. coli BL21(DE3), purified (Ni-NTA)
# B3: A95C mutant of DERA from Escherichia coli (enzyme)
# chain: T3 sequence (P0A6L0 1-259) with A95C
# modifications: intermolecular disulfide bridge C95-C95 in the oxidised form
# notes: DERA (deoC gene) of Escherichia coli with the mutation A95C; also called DERAEC A95C; source: E. coli BL21(DE3), purified (Ni-NTA)
# B4: 2-deoxy-D-ribose-5-phosphate aldolase (DERA) from Pyrobaculum aerophilum, wild type (enzyme)
# chain: T1 sequence (Q8ZXK7 1-226)
# notes: 2-deoxy-D-ribose-5-phosphate aldolase (DERA, deoC gene) of Pyrobaculum aerophilum; gene synthesised by GenScript, in pET21a; also called DERAPA; hyperthermophilic DERA; source: E. coli BL21(DE3), purified (Ni-NTA)
# Experiments:
# DERAPA = target: T1, DERAPA; assay: steady-state kinetics, coupled GDH/TPI assay, NADH at […] nm; type: biochemical; details: retro-aldol cleavage; 25 °C
# DERATM = target: T2, DERATM; assay: as above; type: biochemical; details: retro-aldol cleavage; 25 °C
# DERAEC = target: T3, DERAEC; assay: as above; type: biochemical; details: retro-aldol cleavage; 25 °C
# DERACP = target: T4, DERACP; assay: as above; type: biochemical; details: retro-aldol cleavage; 25 °C
# DERASH = target: T5, DERASH (Shewanella halifaxensis, UniProt B0TQ91); assay: as above; type: biochemical; details: retro-aldol cleavage; 25 °C
# T5 construct: gene deoC; deoC isolated from genomic DNA; E. coli BL21(DE3); NiNTA purification; dimer
# [1] = target: the molecule itself; assay: crystal structure; sitting-drop vapour diffusion at 20 °C; data at 100 K; DERACP tetragonal (P4(1)2(1)2, two chains per asymmetric unit) and hexagonal (P6(1)22, four chains) forms, DERASH (C2, four chains)
# [2] = target: the molecule itself; assay: SEC; Superdex 200 10/300 GL, 100 mM KPi, 150 mM NaCl (pH 7); 1-5 mg protein loaded; calibrated with five protein standards between 12.5 and 200 kDa; hydrodynamic size
# [3] = target: the molecule itself; assay: cross-linking; engineered intermolecular disulfide (A95C) across the dimer interface; oxidised against reduced mutant on SDS-PAGE under non-reducing conditions
# T5 sequence (B0TQ91 whole entry): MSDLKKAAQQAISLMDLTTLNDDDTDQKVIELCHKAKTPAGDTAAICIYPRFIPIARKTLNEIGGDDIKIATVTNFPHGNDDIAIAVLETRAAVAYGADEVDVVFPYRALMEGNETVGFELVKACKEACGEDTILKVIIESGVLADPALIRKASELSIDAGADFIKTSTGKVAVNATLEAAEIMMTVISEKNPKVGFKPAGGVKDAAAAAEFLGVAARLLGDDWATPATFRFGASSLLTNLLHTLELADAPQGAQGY
molecule,measurement,setting,value
O=P(O)(O)OC[C@H]1OC(O)C[C@@H]1O (stereo partly drawn) [2-deoxy-D-ribose-5-phosphate],KM,DERAPA,Both KM and kcat values decrease with increasing optimal growth temperature of the organism
same,KM,DERATM,Both KM and kcat values decrease with increasing optimal growth temperature of the organism
same,KM,DERAEC,Both KM and kcat values decrease with increasing optimal growth temperature of the organism
same,KM,DERACP,Both KM and kcat values decrease with increasing optimal growth temperature of the organism
same,KM,DERASH,Both KM and kcat values decrease with increasing optimal growth temperature of the organism
B1,stoichiometry N,[1],2
B2,stoichiometry N,[2],2
B3,binding result,[3],binds
B4,stoichiometry N,[2],2
